test system: HCV genotype 1b replicon in Huh 7 cells; experiment: HCV replicon assay (luciferase readout, 1b_Huh-Luc/Neo-ET cell line); type: cell-based; conditions: Hepatitis C virus, Huh-7, 72 h, read-out: Inhibition of HCV genotype 1b, Table 5, 72 h incubation
How it was run: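 Huh 7 cells carrying a bicistronic genotype 1b luciferase replicon treated with compound in triplicate for 72 h. Replicon level read as luciferase activity (Bright-Glo), expressed as % of control; EC50 from a sigmoidal Hill-slope fit, repeated several times.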

First: COC(=O)N[C@H](C(=O)N1CCC[C@H]1c1ncc(-c2ccc(C34CCC(c5cnc([C@@H]6CCCN6C(=O)[C@@H](NC6CCOCC6)C(C)C)[nH]5)(CC3)CC4)cc2)[nH]1)C(C)C [compound 2054]
Second: COC(=O)N[C@H](C(=O)N1CCC[C@H]1c1ncc(-c2ccc(C34CCC(c5cnc([C@@H]6CCCN6C(=O)[C@H](NC6CCOCC6)C(C)C)[nH]5)(CC3)CC4)cc2)[nH]1)C(C)C [compound 2055]
The EC50 of the first is higher: 1 to 9.9 nM for the first, under 1 nM for the second.

`COC(=O)N[C@H](C(=O)N1CCC[C@H]1c1ncc(-c2ccc(C34CCC(c5cnc([C@@H]6CCCN6C(=O)[C@H](C(C)C)N(C)C)[nH]5)(CC3)CC4)cc2)[nH]1)C(C)C` [compound 2056] and `COC(=O)N[C@H](C(=O)N1CCC[C@H]1c1ncc(-c2ccc(C34CCC(c5cnc([C@@H]6CCCN6C(=O)[C@@H](C(C)C)N(C)C)[nH]5)(CC3)CC4)cc2)[nH]1)C(C)C` [compound 2057] cannot be ordered by EC50: under 1 nM for the first, under 1 nM for the second.

`COC(=O)N[C@H](C(=O)N1CCC[C@H]1c1ncc(-c2ccc(C34CCC(c5cnc([C@@H]6CCCN6C(=O)[C@H](C(C)C)N6CCC(O)CC6)[nH]5)(CC3)CC4)cc2)[nH]1)C(C)C` [compound 2058] and `COC(=O)N[C@H](C(=O)N1CCC[C@H]1c1ncc(C23CCC(c4ccc(-c5cnc([C@@H]6CCCN6C(=O)[C@H](C(C)C)N6CCC(O)CC6)[nH]5)cc4)(CC2)CC3)[nH]1)C(C)C` [compound 2071] cannot be ordered by EC50: under 1 nM for the first, under 1 nM for the second.

`COC(=O)N[C@H](C(=O)N1CCC[C@H]1c1ncc(-c2ccc(C34CCC(c5cnc([C@@H]6CCCN6C(=O)[C@@H](NC(=O)N6CCC(O)CC6)C(C)C)[nH]5)(CC3)CC4)cc2)[nH]1)C(C)C` [compound 2059] and `COC(=O)N[C@H](C(=O)N1CCC[C@H]1c1ncc(C23CCC(c4ccc(-c5cnc([C@@H]6CCCN6C(=O)[C@H](NC(=O)N6CCC(O)CC6)C(C)C)[nH]5)cc4)(CC2)CC3)[nH]1)C(C)C` [compound 2076] cannot be ordered by EC50: under 1 nM for the first, under 1 nM for the second.

`COC(=O)N[C@H](C(=O)N1CCC[C@H]1c1ncc(-c2ccc(C34CCC(c5cnc([C@@H]6CCCN6C(=O)[C@@H](NC(=O)N6CCOCC6)C(C)C)[nH]5)(CC3)CC4)cc2)[nH]1)C(C)C` [compound 2060] and `COC(=O)N[C@H](C(=O)N1CCC[C@H]1c1ncc(C23CCC(c4ccc(-c5cnc([C@@H]6CCCN6C(=O)[C@H](NC(=O)N6CCCCC6)C(C)C)[nH]5)cc4)(CC2)CC3)[nH]1)C(C)C` [compound 2075] cannot be ordered by EC50: under 1 nM for the first, under 1 nM for the second.

`COC(=O)N[C@@H](C)C(=O)N1CCC[C@H]1c1ncc(C23CCC(c4ccc(-c5cnc([C@@H]6CCCN6C(=O)[C@@H](NC(=O)OC)C(C)C)[nH]5)cc4)(CC2)CC3)[nH]1` [compound 2061] and `COC(=O)N[C@H](C(=O)N1CCC[C@H]1c1ncc(-c2ccc(C34CCC(c5cnc([C@@H]6CCCN6C(=O)[C@@H](C)NC(=O)OC)[nH]5)(CC3)CC4)cc2)[nH]1)C(C)C` [compound 2062] cannot be ordered by EC50: under 1 nM for the first, under 1 nM for the second.

`COC(=O)N[C@@H](C(=O)N1CCC[C@H]1c1ncc(-c2ccc(C34CCC(c5cnc([C@@H]6CCCN6C(=O)[C@H](C(C)C)N(C)C)[nH]5)(CC3)CC4)cc2)[nH]1)c1ccccc1` [compound 2063] and `COC(=O)N[C@H](C(=O)N1CCC[C@H]1c1ncc(C23CCC(c4ccc(-c5cnc([C@@H]6CCCN6C(=O)[C@@H](c6ccccc6)N(C)C)[nH]5)cc4)(CC2)CC3)[nH]1)C(C)C` [compound 2067] cannot be ordered by EC50: under 1 nM for the first, under 1 nM for the second.

`COC(=O)N[C@H](C(=O)N1CCC[C@H]1c1ncc(-c2ccc(C34CCC(c5cnc([C@@H]6CCCN6C(=O)[C@H](NC6CCOCC6)c6ccccc6)[nH]5)(CC3)CC4)cc2)[nH]1)C(C)C` [compound 2064] and `COC(=O)N[C@H](C(=O)N1CCC[C@H]1c1ncc(C23CCC(c4ccc(-c5cnc([C@@H]6CCCN6C(=O)[C@H](NC6CCOCC6)c6ccccc6)[nH]5)cc4)(CC2)CC3)[nH]1)C(C)C` [compound 2068] cannot be ordered by EC50: under 1 nM for the first, under 1 nM for the second.

`COC(=O)N[C@@H](CC(C)C)C(=O)N1CCC[C@H]1c1ncc(C23CCC(c4ccc(-c5cnc([C@@H]6CCCN6C(=O)[C@@H](NC(=O)OC)C(C)C)[nH]5)cc4)(CC2)CC3)[nH]1` [compound 2065] and `COC(=O)N[C@@H](CC(C)C)C(=O)N1CCC[C@H]1c1ncc(-c2ccc(C34CCC(c5cnc([C@@H]6CCCN6C(=O)[C@@H](NC(=O)OC)C(C)C)[nH]5)(CC3)CC4)cc2)[nH]1` [compound 2072] cannot be ordered by EC50: under 1 nM for the first, under 1 nM for the second.

`CC[C@H](C)[C@H](NC(=O)OC)C(=O)N1CCC[C@H]1c1ncc(C23CCC(c4ccc(-c5cnc([C@@H]6CCCN6C(=O)[C@@H](NC(=O)OC)C(C)C)[nH]5)cc4)(CC2)CC3)[nH]1` [compound 2066] and `CC[C@H](C)[C@H](NC(=O)OC)C(=O)N1CCC[C@H]1c1ncc(-c2ccc(C34CCC(c5cnc([C@@H]6CCCN6C(=O)[C@@H](NC(=O)OC)C(C)C)[nH]5)(CC3)CC4)cc2)[nH]1` [compound 2073] cannot be ordered by EC50: under 1 nM for the first, under 1 nM for the second.

`COC(=O)N[C@H](C(=O)N1CCC[C@H]1c1ncc(C23CCC(c4ccc(-c5cnc([C@@H]6CCCN6C(=O)[C@@H](c6ccccc6)N6CCCCC6)[nH]5)cc4)(CC2)CC3)[nH]1)C(C)C` [compound 2069] and `CNC(=O)N[C@@H](C(=O)N1CCC[C@H]1c1ncc(C23CCC(c4ccc(-c5cnc([C@@H]6CCCN6C(=O)[C@@H](NC(=O)OC)C(C)C)[nH]5)cc4)(CC2)CC3)[nH]1)c1ccccc1` [compound 2089] cannot be ordered by EC50: under 1 nM for the first, under 1 nM for the second.

`COC(=O)N[C@H](C(=O)N1CCC[C@H]1c1ncc(C23CCC(c4ccc(-c5cnc([C@@H]6CCCN6C(=O)[C@@H](C(C)C)N(C)C)[nH]5)cc4)(CC2)CC3)[nH]1)C(C)C` [compound 2070] and `COC(=O)N[C@H](C(=O)N1CCC[C@H]1c1ncc(C23CCC(c4ccc(-c5cnc([C@@H]6CCCN6C(=O)[C@H](C(C)C)N(C)C)[nH]5)cc4)(CC2)CC3)[nH]1)C(C)C` [compound 2077] cannot be ordered by EC50: under 1 nM for the first, under 1 nM for the second.

`COC(=O)N[C@H](C(=O)N[C@@H](C)c1ncc(-c2ccc(C34CCC(c5cnc([C@@H]6CCCN6C(=O)[C@@H](NC(=O)OC)C(C)C)[nH]5)(CC3)CC4)cc2)[nH]1)C(C)C` [compound 2074] and `COC(=O)N[C@H](C(=O)N[C@@H](C)c1ncc(-c2ccc(C34CCC(c5cnc([C@@H]6CCCN6C(=O)[C@H](C(C)C)N(C)C)[nH]5)(CC3)CC4)cc2)[nH]1)C(C)C` [compound 2078] cannot be ordered by EC50: under 1 nM for the first, under 1 nM for the second.

First: COC(=O)N[C@H](C(=O)N1CCC[C@H]1c1ncc(C23CCC(c4ccc(-c5cnc([C@@H]6CCCN6C(=O)[C@@H](NC(=O)OC6CCOCC6)C(C)C)[nH]5)cc4)(CC2)CC3)[nH]1)C(C)C [compound 2079]
Second: COC(=O)N[C@H](C(=O)N1CCC[C@H]1c1ncc(C23CCC(c4ccc(-c5cnc([C@@H]6CCCN6C(=O)[C@H](NC(=O)OC6CCOCC6)C(C)C)[nH]5)cc4)(CC2)CC3)[nH]1)C(C)C [compound 2080]
The EC50 of the first is higher: 1 to 9.9 nM for the first, under 1 nM for the second. The second is the more potent here.

`COC(=O)N[C@@H](C)C(=O)N1CCC[C@H]1c1ncc(-c2ccc(C34CCC(c5cnc([C@@H]6CCCN6C(=O)[C@@H](NC(=O)OC)C(C)C)[nH]5)(CC3)CC4)cc2)[nH]1` [compound 2081] and `COC(=O)N[C@H](C(=O)N1CCC[C@H]1c1ncc(C23CCC(c4ccc(-c5cnc([C@@H]6CCCN6C(=O)[C@@H](C)NC(=O)OC)[nH]5)cc4)(CC2)CC3)[nH]1)C(C)C` [compound 2082] cannot be ordered by EC50: under 1 nM for the first, under 1 nM for the second.

`COC(=O)N[C@H](C(=O)N[C@@H](C)c1ncc(-c2ccc(C34CCC(c5cnc([C@@H]6CCCN6C(=O)[C@H](NC(=O)OC)c6ccccc6)[nH]5)(CC3)CC4)cc2)[nH]1)C(C)C` [compound 2083] and `COC(=O)N[C@H](C(=O)N[C@@H](C)c1ncc(-c2ccc(C34CCC(c5cnc([C@@H]6CCCN6C(=O)[C@@H](c6ccccc6)N(C)C)[nH]5)(CC3)CC4)cc2)[nH]1)C(C)C` [compound 2085] cannot be ordered by EC50: under 1 nM for the first, under 1 nM for the second.

`COC(=O)N[C@H](C(=O)N1CCC[C@H]1c1ncc(-c2ccc(C34CCC(c5cnc([C@@H]6CCCN6C(=O)[C@H](NC(=O)OC6CCOCC6)C(C)C)[nH]5)(CC3)CC4)cc2)[nH]1)C(C)C` [compound 2084] and `CNC(=O)N[C@H](C(=O)N1CCC[C@H]1c1ncc(-c2ccc(C34CCC(c5cnc([C@@H]6CCCN6C(=O)[C@@H](NC(=O)OC)C(C)C)[nH]5)(CC3)CC4)cc2)[nH]1)C(C)C` [compound 2095] cannot be ordered by EC50: under 1 nM for the first, under 1 nM for the second.

`COC(=O)N[C@@H](C(=O)N1CCOC[C@H]1c1ncc(-c2ccc(C34CCC(c5cnc([C@@H]6CCCN6C(=O)[C@H](NC(=O)OC)c6ccccc6)[nH]5)(CC3)CC4)cc2)[nH]1)c1ccccc1` [compound 2086] and `CCNC(=O)N[C@@H](C(=O)N1CCC[C@H]1c1ncc(C23CCC(c4ccc(-c5cnc([C@@H]6CCCN6C(=O)[C@@H](NC(=O)OC)C(C)C)[nH]5)cc4)(CC2)CC3)[nH]1)c1ccccc1` [compound 2090] cannot be ordered by EC50: under 1 nM for the first, under 1 nM for the second.

`COC(=O)N[C@H](C(=O)N1CCOC[C@H]1c1ncc(-c2ccc(C34CCC(c5cnc([C@@H]6CCCN6C(=O)[C@@H](NC(=O)OC)C(C)C)[nH]5)(CC3)CC4)cc2)[nH]1)C(C)C` [compound 2087] and `CCC(C)[C@H](NC(=O)OC)C(=O)N1CCC[C@H]1c1ncc(-c2ccc(C34CCC(c5cnc([C@@H]6CCCN6C(=O)[C@@H](NC(=O)OC)C(C)CC)[nH]5)(CC3)CC4)cc2)[nH]1` (stereo partly drawn) [compound 2092] cannot be ordered by EC50: under 1 nM for the first, under 1 nM for the second.

`COC(=O)N[C@H](C(=O)N1CCC[C@H]1c1ncc(-c2ccc(C34CCC(c5cnc([C@@H]6CCCN6C(=O)[C@H](NC(=O)N6CC[C@@H](O)C6)c6ccccc6)[nH]5)(CC3)CC4)cc2)[nH]1)C(C)C` [compound 2088] and `COC(=O)N[C@@H](CC(C)C)C(=O)N1CCC[C@H]1c1ncc(-c2ccc(C34CCC(c5cnc([C@@H]6CCCN6C(=O)[C@H](CC(C)C)NC(=O)OC)[nH]5)(CC3)CC4)cc2)[nH]1` [compound 2091] cannot be ordered by EC50: under 1 nM for the first, under 1 nM for the second.

`COC(=O)N[C@H](C(=O)N1CCC[C@H]1c1ncc(-c2ccc(C34CCC(c5cnc([C@@H]6CCCN6C(=O)[C@@H](NC(=O)OC)C(C)(C)C)[nH]5)(CC3)CC4)cc2)[nH]1)C(C)(C)C` [compound 2093] and `COC(=O)N[C@H](C(=O)N1CCC[C@H]1c1ncc(-c2ccc(C34CCC(c5cnc([C@@H]6CCCN6C(=O)[C@@H](NC(=O)OC)C6CCCC6)[nH]5)(CC3)CC4)cc2)[nH]1)C1CCCC1` [compound 2094] cannot be ordered by EC50: under 1 nM for the first, under 1 nM for the second.
